The results in this text go back to US9018383B2, “Acylamino-substituted cyclic carboxylic acid derivatives and their use as pharmaceuticals” (Sanofi, priority 2009, dated 2015).

human Edg-2 receptor, sequence (Q92633 whole entry): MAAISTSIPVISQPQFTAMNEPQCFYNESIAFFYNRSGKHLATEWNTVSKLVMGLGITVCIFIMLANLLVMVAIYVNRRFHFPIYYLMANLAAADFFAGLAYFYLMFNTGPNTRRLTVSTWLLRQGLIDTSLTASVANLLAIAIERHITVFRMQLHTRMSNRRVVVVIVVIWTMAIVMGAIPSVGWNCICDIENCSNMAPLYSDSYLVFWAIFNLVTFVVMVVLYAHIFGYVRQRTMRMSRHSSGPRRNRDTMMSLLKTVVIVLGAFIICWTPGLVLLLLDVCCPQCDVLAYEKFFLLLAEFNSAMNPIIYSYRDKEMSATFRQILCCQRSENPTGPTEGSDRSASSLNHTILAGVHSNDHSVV

The assay addresses human Edg-2 receptor (Homo sapiens, UniProt Q92633). The experiment in a line: Determination of Edg-2 receptor inhibition by FLIPR measurements (LPA-mediated calcium liberation). Particulars: CHO cells overexpressing human Edg-2 receptor, LPA 100 nM, fluo-4 calcium fluorescence; read-out: Inhibitory concentrations IC50 for inhibition of the Edg-2 receptor. The format is cell-based. In short, it runs like this: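 IC50 was derived from % inhibition of the baseline-corrected peak fluo-4 signal relative to DMSO, measured in triplicate. Compound was added ~5 min before 100 nM LPA (18:1) to human Edg-2–expressing CHO cells in pH 7.5 HBSS buffer with probenecid and HEPES, and fluorescence was monitored ~3 min.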
As to `CC[C@H]1CC[C@](NC(=O)c2cnc(OCCO)c(-c3ccc(OC)c(Cl)c3)c2)(C(=O)O)CC1` [Example 417], the IC50 is under 0.1 µM.

As to `CC[C@H]1CC[C@@](NC(=O)c2ccc(OCCO)c(OCCc3cccc(Cl)c3)c2)(C(=O)O)CC1` [Example 418, trans-1-[3-[2-(3-Chloro-phenyl)-ethoxy]-4-(2-hydroxy-ethoxy)-benzoylamino]-4-ethyl-cyclohexanecarboxylic acid], the IC50 is under 0.1 µM.

Regarding `CC[C@H]1CC[C@](NC(=O)c2ccc(OCCO)c(OCCc3cccc(Cl)c3)c2)(C(=O)O)CC1` [Example 419, cis-1-[3-[2-(3-Chloro-phenyl)-ethoxy]-4-(2-hydroxy-ethoxy)-benzoylamino]-4-ethyl-cyclohexanecarboxylic acid], the IC50 is under 0.1 µM.

On to `C[C@H]1CC[C@@](NC(=O)c2ccc(OCCO)c(OCCc3ccccc3)c2)(C(=O)O)CC1` [Example 420, trans-1-[4-(2-Hydroxy-ethoxy)-3-phenethyloxy-benzoylamino]-4-methyl-cyclohexanecarboxylic acid], for which the IC50 lay within 0.1 to 1 µM.

As to `C[C@H]1CC[C@](NC(=O)c2ccc(OCCO)c(OCCc3ccccc3)c2)(C(=O)O)CC1` [Example 421, cis-1-[4-(2-Hydroxy-ethoxy)-3-phenethyloxy-benzoylamino]-4-methyl-cyclohexanecarboxylic acid], the IC50 lay in the range of 0.1 to 1 µM.

For the compound `O=C(NC1(C(=O)O)CCCCCC1)c1ccc(OCCO)c(OCCc2ccccc2)c1` [Example 422, 1-[4-(2-Hydroxy-ethoxy)-3-phenethyloxy-benzoylamino]cycloheptanecarboxylic acid], the IC50 fell in the range of 0.1 to 1 µM.

Take `CC[C@H]1CC[C@](NC(=O)c2cnc(OC)c(OCCc3cccc(CCO)c3)c2)(C(=O)O)CC1` [Example 423, cis-4-Ethyl-1-[(5-{2-[3-(2-hydroxy-ethyl)-phenyl]-ethoxy}-6-methoxy-pyridine-3-carbonyl)-amino]-cyclohexanecarboxylic acid]: the IC50 was under 0.1 µM.

On to `CC[C@H]1CC[C@@](NC(=O)c2cnc(OC)c(OCCc3cccc(CCO)c3)c2)(C(=O)O)CC1` [Example 424, trans-4-Ethyl-1-[(5-{2-[3-(2-hydroxy-ethyl)-phenyl]-ethoxy}-6-methoxy-pyridine-3-carbonyl)-amino]-cyclohexanecarboxylic acid], for which the IC50 was under 0.1 µM.

For the compound `CC[C@H]1CC[C@](NC(=O)c2ccc(OC)c(-c3ccc(OC)c(F)c3)c2)(C(=O)O)CC1` [Example 425, cis-4-Ethyl-1-[(3′-fluoro-6,4′-dimethoxy-biphenyl-3-carbonyl)-amino]-cyclohexanecarboxylic acid], the IC50 was 0.1 to 1 µM.

On to `CC[C@H]1CC[C@](NC(=O)c2cnc(O)c(-c3cccc(C(F)(F)F)c3)c2)(C(=O)O)CC1` [Example 426, cis-4-Ethyl-1-{[6-hydroxy-5-(3-trifluoromethyl-phenyl)-pyridine-3-carbonyl]-amino}-cyclohexanecarboxylic acid], for which the IC50 was in the range of 0.1 to 1 µM.

Regarding `CC[C@@H]1C[C@]1(NC(=O)c1ccc(OC)c(-c2cccc(C(F)(F)F)c2)c1)C(=O)O` [Example 427, (1R,2R)-2-Ethyl-1-[(6-methoxy-3′-trifluoromethyl-biphenyl-3-carbonyl)-amino]-cyclopropanecarboxylic acid], the IC50 fell in the range of 0.1 to 1 µM.

`CC[C@H]1CC[C@](NC(=O)c2ccc(C=O)c(-c3cccc(C(F)(F)F)c3)c2)(C(=O)O)CC1` [Example 428, cis-4-Ethyl-1-[(6-formyl-3′-trifluoromethyl-biphenyl-3-carbonyl)-amino]-cyclohexanecarboxylic acid]: the IC50 was under 0.1 µM.

`CC[C@H]1CC[C@@](NC(=O)c2ccc(C=O)c(-c3cccc(C(F)(F)F)c3)c2)(C(=O)O)CC1` [Example 429, trans-4-Ethyl-1-[(6-formyl-3′-trifluoromethyl-biphenyl-3-carbonyl)-amino]-cyclohexanecarboxylic acid]: the IC50 is 0.1 to 1 µM.
